Measurements: ChEMBL document CHEMBL6078681, “Discovery and Optimization of Dihydroquinolin-2(1H)-ones as Novel Highly Selective and Orally Bioavailable Phosphodiesterase 5 Inhibitors for the Treatment of Pulmonary Arterial Hypertension” (J Med Chem, 2024)
One block for each compound: values may come before it. Active and inactive are the calls of the source. No cut-off for these calls is given here.

Legend:
[1] = molecular target: T1, cGMP-specific 3',5'-cyclic phosphodiesterase (Homo sapiens, UniProt O76074); assay: Inhibition of PDE5A (unknown origin) using […] as substrate incubated for 1 hr by fluorescence polarization assay
[2] = molecular target: Dual specificity calcium/calmodulin-dependent 3',5'-cyclic nucleotide phosphodiesterase 1C (Homo sapiens, UniProt Q14123); assay: Inhibition of PDE1C (unknown origin) using FAM-cAMP as substrate incubated for 1 hr by fluorescence polarization assay
[3] = molecular target: cGMP-dependent 3',5'-cyclic phosphodiesterase (Homo sapiens, UniProt O00408); assay: Inhibition of PDE2A (unknown origin) using FAM-cAMP as substrate incubated for 1 hr by fluorescence polarization assay
[4] = molecular target: cGMP-inhibited 3',5'-cyclic phosphodiesterase 3A (Homo sapiens, UniProt Q14432); assay: Inhibition of PDE3A (unknown origin) using FAM-cAMP as substrate incubated for 1 hr by fluorescence polarization assay
[5] = molecular target: 3',5'-cyclic-AMP phosphodiesterase 4D (Homo sapiens, UniProt Q08499); assay: Inhibition of PDE4D2 (unknown origin) using FAM-cAMP as substrate incubated for 1 hr by fluorescence polarization assay
[6] = molecular target: Cone cGMP-specific 3',5'-cyclic phosphodiesterase subunit alpha' (Homo sapiens, UniProt P51160); assay: Inhibition of PDE6C (unknown origin) using […] as substrate incubated for 1 hr by fluorescence polarization assay
[7] = molecular target: High affinity 3',5'-cyclic-AMP phosphodiesterase 7A (Homo sapiens, UniProt Q13946); assay: Inhibition of PDE7A (unknown origin) using FAM-cAMP as substrate incubated for 1 hr by fluorescence polarization assay
[8] = molecular target: High affinity cAMP-specific and IBMX-insensitive 3',5'-cyclic phosphodiesterase 8A (Homo sapiens, UniProt O60658); assay: Inhibition of PDE8A1 (unknown origin) using FAM-cAMP as substrate incubated for 1 hr by fluorescence polarization assay
[9] = molecular target: High affinity cGMP-specific 3',5'-cyclic phosphodiesterase 9A (Homo sapiens, UniProt O76083); assay: Inhibition of PDE9A2 (unknown origin) using […] as substrate incubated for 1 hr by fluorescence polarization assay
[10] = molecular target: cAMP and cAMP-inhibited cGMP 3',5'-cyclic phosphodiesterase 10A (Homo sapiens, UniProt Q9Y233); assay: Inhibition of PDE10A2 (unknown origin) using FAM-cAMP as substrate incubated for 1 hr by fluorescence polarization assay
[11] = molecular target: Dual 3',5'-cyclic-AMP and -GMP phosphodiesterase 11A (Homo sapiens, UniProt Q9HCR9); assay: Inhibition of PDE11A (unknown origin) using FAM-cAMP as substrate incubated for 1 hr by fluorescence polarization assay
[12] = AUC (0 to t) in Sprague-Dawley rat at 2 mg/kg, iv measured for 5 to 1440 mins by LC-MS/MS analysis; format: ADME, organism-based; conditions: in vivo, time 5-1440 min
[13] = AUC (0 to infinity) in Sprague-Dawley rat at 2 mg/kg, iv measured for 5 to 1440 mins by LC-MS/MS analysis; format: ADME, organism-based; conditions: in vivo, time 5-1440 min
[14] = MRT (0 to t) in Sprague-Dawley rat at 2 mg/kg, iv measured for 5 to 1440 mins by LC-MS/MS analysis; format: ADME, organism-based; conditions: in vivo, time 5-1440 min
[15] = MRT (0 to infinity) in Sprague-Dawley rat at 2 mg/kg, iv measured for 5 to 1440 mins by LC-MS/MS analysis; format: ADME, organism-based; conditions: in vivo, time 5-1440 min
[16] = Half life in Sprague-Dawley rat at 2 mg/kg, iv measured for 5 to 1440 mins by LC-MS/MS analysis; format: ADME, organism-based; conditions: in vivo, time 5-1440 min
[17] = Tmax in Sprague-Dawley rat at 2 mg/kg, iv measured for 5 to 1440 mins by LC-MS/MS analysis; format: ADME, organism-based; conditions: in vivo, time 5-1440 min
[18] = Clearance in Sprague-Dawley rat at 2 mg/kg, iv measured for 5 to 1440 mins by LC-MS/MS analysis; format: ADME, organism-based; conditions: in vivo, time 5-1440 min
[19] = Apparent volume of distribution in Sprague-Dawley rat at 2 mg/kg, iv measured for 5 to 1440 mins by LC-MS/MS analysis; format: ADME, organism-based; conditions: in vivo, time 5-1440 min, read-out: Vz
[20] = Cmax in Sprague-Dawley rat at 2 mg/kg, iv measured for 5 to 1440 mins by LC-MS/MS analysis; format: ADME, organism-based; conditions: in vivo, time 5-1440 min
[21] = AUC (0 to t) in Sprague-Dawley rat at 10 mg/kg, po measured for 5 to 1440 mins by LC-MS/MS analysis; format: ADME, organism-based; conditions: in vivo, time 5-1440 min
[22] = AUC (0 to infinity) in Sprague-Dawley rat at 10 mg/kg, po measured for 5 to 1440 mins by LC-MS/MS analysis; format: ADME, organism-based; conditions: in vivo, time 5-1440 min
[23] = MRT (0 to t) in Sprague-Dawley rat at 10 mg/kg, po measured for 5 to 1440 mins by LC-MS/MS analysis; format: ADME, organism-based; conditions: in vivo, time 5-1440 min
[24] = MRT (0 to infinity) in Sprague-Dawley rat at 10 mg/kg, po measured for 5 to 1440 mins by LC-MS/MS analysis; format: ADME, organism-based; conditions: in vivo, time 5-1440 min
[25] = Half life in Sprague-Dawley rat at 10 mg/kg, po measured for 5 to 1440 mins by LC-MS/MS analysis; format: ADME, organism-based; conditions: in vivo, time 5-1440 min
[26] = Tmax in Sprague-Dawley rat at 10 mg/kg, po measured for 5 to 1440 mins by LC-MS/MS analysis; format: ADME, organism-based; conditions: in vivo, time 5-1440 min
[27] = Clearance in Sprague-Dawley rat at 10 mg/kg, po measured for 5 to 1440 mins by LC-MS/MS analysis; format: ADME, organism-based; conditions: in vivo, time 5-1440 min
[28] = Volume of distribution in Sprague-Dawley rat at 10 mg/kg, po measured for 5 to 1440 mins by LC-MS/MS analysis; format: ADME, organism-based; conditions: in vivo, time 5-1440 min
[29] = Cmax in Sprague-Dawley rat at 10 mg/kg, po measured for 5 to 1440 mins by LC-MS/MS analysis; format: ADME, organism-based; conditions: in vivo, time 5-1440 min
[30] = Oral bioavailability in Sprague-Dawley rat at 10 mg/kg measured for 5 to 1440 mins by LC-MS/MS analysis; format: ADME, organism-based; conditions: in vivo, time 5-1440 min
[31] = Half life in rat liver microsomes; format: ADME, Microsome
[32] = molecular target: Voltage-gated inwardly rectifying potassium channel KCNH2 (Homo sapiens, UniProt Q12809); assay: Inhibition of hERG; format: toxicity
Cytochrome P450 1A2 = molecular target: T2, Cytochrome P450 1A2 (Homo sapiens, UniProt P05177); assay: Inhibition of CYP1A2 (unknown origin); format: ADME
T2 sequence (P05177 whole entry): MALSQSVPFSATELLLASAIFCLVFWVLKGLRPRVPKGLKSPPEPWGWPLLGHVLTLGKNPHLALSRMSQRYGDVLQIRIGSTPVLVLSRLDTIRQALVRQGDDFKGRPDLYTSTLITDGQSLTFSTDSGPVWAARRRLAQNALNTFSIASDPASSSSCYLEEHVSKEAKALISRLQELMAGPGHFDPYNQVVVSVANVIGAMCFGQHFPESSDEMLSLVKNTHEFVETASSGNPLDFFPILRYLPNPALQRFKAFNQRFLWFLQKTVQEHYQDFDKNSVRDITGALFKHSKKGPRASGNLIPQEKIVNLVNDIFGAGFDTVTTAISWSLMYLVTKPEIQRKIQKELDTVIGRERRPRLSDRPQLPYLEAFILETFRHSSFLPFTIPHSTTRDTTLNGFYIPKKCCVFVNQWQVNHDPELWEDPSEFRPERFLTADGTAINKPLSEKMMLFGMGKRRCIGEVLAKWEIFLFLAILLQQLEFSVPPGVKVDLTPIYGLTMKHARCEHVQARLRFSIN

Cytochrome P450 2C19 = Cytochrome P450 2C19 (Homo sapiens, UniProt P33261); assay: Inhibition of CYP2C19 (unknown origin); format: ADME
Cytochrome P450 2C9 = Cytochrome P450 2C9 (Homo sapiens, UniProt P11712); assay: Inhibition of CYP2C9 (unknown origin); format: ADME
Cytochrome P450 2D6 = Cytochrome P450 2D6 (Homo sapiens, UniProt P10635); assay: Inhibition of CYP2D6 (unknown origin); format: ADME
Cytochrome P450 3A4 = Cytochrome P450 3A4 (Homo sapiens, UniProt P08684); assay: Inhibition of CYP3A4 (unknown origin); format: ADME
[33] = Acute toxicity in mouse assessed as drug tolerance at >1.5 g/kg, po; conditions: in vivo, 1500 mg/kg
Rattus norvegicus [34] = assay: Anti-Pulmonary arterial hypertension in mono-crotaline-treated Sprague-Dawley rat model assessed as decrease in mPAP level at 2.5 mg/kg for 21 days; format: functional, organism-based; conditions: time 21.0 day
Rattus norvegicus [35] = assay: Anti-Pulmonary arterial hypertension in mono-crotaline-treated Sprague-Dawley rat model assessed as decrease in mPAP level at 5 mg/kg for 21 days; format: functional, organism-based; conditions: time 21.0 day
[36] = Toxicity in mono-crotaline-treated Sprague-Dawley rat model of Pulmonary arterial hypertension assessed as body weight change at 2.5 to 5 mg/kg for 21 days; format: organism-based; conditions: in vivo, 504 h, dose 2.5-5 mg/kg, time 21 day
Rattus norvegicus [37] = assay: Anti-Pulmonary arterial hypertension in mono-crotaline-treated Sprague-Dawley rat model assessed as decrease in RVHI level at 2.5 to 5 mg/kg for 21 days; format: functional, organism-based; conditions: dose 2.5-5 mg/kg, time 21.0 day
Rattus norvegicus [38] = assay: Anti-Pulmonary arterial hypertension in mono-crotaline-treated Sprague-Dawley rat model assessed as decrease in pulmonary arteriole wall thickness at 2.5 to 5 mg/kg for 21 days by H and E staining based analysis; format: functional, organism-based; conditions: dose 2.5-5 mg/kg, time 21.0 day
[39] = molecular target: T1, cGMP-specific 3',5'-cyclic phosphodiesterase; assay: Inhibition of PDE5A (unknown origin) using […] as substrate at 1000 nM incubated for 1 hr by fluorescence polarization assay relative to control

Cytochrome P450 2C9, sequence (P11712 whole entry): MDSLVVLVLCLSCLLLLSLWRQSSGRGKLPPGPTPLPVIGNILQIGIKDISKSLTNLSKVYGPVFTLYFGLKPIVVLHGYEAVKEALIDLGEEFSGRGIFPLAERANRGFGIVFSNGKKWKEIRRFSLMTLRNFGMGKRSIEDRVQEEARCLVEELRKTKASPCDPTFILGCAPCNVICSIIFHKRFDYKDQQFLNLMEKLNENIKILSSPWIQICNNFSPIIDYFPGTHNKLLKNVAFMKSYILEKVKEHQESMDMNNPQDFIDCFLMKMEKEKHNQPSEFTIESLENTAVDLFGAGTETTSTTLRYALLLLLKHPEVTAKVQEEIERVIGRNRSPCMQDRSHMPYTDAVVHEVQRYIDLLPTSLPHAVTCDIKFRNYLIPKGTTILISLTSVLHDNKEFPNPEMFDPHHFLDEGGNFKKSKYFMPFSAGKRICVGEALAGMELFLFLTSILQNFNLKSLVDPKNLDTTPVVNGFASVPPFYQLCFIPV
3',5'-cyclic-AMP phosphodiesterase 4D, sequence (Q08499 whole entry): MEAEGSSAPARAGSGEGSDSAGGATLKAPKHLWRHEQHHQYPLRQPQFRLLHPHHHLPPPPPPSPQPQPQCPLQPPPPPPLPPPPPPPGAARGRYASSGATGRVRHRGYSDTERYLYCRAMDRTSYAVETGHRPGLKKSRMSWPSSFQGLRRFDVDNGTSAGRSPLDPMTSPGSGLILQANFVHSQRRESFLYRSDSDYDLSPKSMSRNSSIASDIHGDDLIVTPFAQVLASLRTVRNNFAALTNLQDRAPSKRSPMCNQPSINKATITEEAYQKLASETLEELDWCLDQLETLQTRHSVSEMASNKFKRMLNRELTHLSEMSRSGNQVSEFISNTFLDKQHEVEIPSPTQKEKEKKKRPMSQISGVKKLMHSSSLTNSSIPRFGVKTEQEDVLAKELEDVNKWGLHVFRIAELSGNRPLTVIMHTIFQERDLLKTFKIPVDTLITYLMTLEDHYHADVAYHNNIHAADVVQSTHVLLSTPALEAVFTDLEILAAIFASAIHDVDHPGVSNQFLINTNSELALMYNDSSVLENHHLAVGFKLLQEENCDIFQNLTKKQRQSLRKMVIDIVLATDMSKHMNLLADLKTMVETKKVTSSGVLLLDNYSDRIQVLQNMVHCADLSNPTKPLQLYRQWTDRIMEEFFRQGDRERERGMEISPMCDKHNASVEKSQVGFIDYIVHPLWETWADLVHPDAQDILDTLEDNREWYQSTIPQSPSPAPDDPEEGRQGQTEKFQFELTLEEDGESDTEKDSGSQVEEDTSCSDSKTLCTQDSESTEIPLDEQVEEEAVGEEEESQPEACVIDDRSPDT
cAMP and cAMP-inhibited cGMP 3',5'-cyclic phosphodiesterase 10A, sequence (Q9Y233 whole entry): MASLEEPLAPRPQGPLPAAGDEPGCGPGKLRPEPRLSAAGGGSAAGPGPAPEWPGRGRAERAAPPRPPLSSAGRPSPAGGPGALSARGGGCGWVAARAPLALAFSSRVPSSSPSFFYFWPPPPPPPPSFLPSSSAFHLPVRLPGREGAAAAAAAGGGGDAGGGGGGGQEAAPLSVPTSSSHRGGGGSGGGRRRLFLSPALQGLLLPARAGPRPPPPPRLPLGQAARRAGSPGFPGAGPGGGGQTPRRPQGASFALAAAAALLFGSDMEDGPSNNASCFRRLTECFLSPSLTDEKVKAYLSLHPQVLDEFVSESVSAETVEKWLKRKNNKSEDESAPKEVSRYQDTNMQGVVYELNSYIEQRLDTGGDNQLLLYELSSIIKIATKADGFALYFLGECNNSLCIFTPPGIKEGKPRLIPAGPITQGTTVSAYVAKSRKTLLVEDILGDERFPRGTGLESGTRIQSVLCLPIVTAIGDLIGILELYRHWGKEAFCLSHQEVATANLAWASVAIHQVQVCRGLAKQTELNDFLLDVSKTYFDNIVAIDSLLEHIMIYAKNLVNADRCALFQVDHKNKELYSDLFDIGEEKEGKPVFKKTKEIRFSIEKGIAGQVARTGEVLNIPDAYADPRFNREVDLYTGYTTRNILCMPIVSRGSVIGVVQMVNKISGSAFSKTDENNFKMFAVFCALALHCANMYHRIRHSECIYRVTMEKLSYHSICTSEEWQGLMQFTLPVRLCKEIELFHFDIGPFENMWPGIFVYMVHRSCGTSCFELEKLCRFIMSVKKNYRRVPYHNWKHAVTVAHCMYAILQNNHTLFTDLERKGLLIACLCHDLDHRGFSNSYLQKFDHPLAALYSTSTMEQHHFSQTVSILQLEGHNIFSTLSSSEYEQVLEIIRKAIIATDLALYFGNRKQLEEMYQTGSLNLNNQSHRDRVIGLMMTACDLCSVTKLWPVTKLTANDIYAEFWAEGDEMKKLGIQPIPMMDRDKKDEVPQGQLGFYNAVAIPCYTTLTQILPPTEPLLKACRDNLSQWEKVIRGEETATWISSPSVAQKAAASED
Cone cGMP-specific 3',5'-cyclic phosphodiesterase subunit alpha', sequence (P51160 whole entry): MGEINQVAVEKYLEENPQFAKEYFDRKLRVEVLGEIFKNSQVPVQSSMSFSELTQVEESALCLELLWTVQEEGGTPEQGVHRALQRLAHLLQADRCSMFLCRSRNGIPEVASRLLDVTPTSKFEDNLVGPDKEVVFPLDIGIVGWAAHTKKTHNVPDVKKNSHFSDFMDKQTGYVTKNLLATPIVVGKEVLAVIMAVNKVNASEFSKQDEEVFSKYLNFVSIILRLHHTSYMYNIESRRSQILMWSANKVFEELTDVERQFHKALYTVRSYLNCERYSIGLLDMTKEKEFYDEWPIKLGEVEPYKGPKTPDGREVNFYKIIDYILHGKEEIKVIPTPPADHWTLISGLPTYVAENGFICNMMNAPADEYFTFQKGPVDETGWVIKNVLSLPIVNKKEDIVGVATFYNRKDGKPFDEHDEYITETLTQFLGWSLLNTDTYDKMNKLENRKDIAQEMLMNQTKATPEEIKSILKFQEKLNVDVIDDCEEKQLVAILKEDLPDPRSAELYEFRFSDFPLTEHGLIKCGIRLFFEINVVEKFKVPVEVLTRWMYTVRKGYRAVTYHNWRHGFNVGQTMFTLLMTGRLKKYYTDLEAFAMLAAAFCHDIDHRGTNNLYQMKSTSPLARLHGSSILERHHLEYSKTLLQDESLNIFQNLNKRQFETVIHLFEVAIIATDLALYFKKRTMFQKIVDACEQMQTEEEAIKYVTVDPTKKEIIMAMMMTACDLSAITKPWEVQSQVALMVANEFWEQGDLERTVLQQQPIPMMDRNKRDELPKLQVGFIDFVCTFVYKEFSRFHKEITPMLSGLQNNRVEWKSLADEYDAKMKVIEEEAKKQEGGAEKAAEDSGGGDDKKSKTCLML
Dual 3',5'-cyclic-AMP and -GMP phosphodiesterase 11A, sequence (Q9HCR9 whole entry): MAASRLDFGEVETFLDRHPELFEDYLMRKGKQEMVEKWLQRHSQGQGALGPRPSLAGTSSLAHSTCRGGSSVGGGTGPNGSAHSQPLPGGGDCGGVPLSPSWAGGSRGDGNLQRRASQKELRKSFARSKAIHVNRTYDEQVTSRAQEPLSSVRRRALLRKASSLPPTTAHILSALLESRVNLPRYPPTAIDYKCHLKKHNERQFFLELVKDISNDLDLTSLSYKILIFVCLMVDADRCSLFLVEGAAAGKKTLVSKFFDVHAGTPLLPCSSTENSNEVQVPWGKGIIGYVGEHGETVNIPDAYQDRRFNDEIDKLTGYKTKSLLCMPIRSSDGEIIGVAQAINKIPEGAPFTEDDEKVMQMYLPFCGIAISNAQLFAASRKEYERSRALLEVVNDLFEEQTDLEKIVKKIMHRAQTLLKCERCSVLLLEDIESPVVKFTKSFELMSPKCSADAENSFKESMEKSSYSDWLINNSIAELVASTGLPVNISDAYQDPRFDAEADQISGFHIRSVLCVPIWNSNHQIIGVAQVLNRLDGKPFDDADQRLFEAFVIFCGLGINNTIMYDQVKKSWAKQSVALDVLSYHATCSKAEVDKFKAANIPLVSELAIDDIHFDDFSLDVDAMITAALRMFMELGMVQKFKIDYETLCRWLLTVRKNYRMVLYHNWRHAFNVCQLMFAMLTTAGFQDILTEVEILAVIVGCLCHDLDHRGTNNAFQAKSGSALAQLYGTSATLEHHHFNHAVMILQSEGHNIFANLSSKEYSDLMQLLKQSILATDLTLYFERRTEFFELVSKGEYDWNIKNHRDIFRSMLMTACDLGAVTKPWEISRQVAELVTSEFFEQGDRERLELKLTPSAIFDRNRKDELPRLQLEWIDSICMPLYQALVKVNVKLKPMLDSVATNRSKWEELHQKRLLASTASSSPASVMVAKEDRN
cGMP-dependent 3',5'-cyclic phosphodiesterase, sequence (O00408 whole entry): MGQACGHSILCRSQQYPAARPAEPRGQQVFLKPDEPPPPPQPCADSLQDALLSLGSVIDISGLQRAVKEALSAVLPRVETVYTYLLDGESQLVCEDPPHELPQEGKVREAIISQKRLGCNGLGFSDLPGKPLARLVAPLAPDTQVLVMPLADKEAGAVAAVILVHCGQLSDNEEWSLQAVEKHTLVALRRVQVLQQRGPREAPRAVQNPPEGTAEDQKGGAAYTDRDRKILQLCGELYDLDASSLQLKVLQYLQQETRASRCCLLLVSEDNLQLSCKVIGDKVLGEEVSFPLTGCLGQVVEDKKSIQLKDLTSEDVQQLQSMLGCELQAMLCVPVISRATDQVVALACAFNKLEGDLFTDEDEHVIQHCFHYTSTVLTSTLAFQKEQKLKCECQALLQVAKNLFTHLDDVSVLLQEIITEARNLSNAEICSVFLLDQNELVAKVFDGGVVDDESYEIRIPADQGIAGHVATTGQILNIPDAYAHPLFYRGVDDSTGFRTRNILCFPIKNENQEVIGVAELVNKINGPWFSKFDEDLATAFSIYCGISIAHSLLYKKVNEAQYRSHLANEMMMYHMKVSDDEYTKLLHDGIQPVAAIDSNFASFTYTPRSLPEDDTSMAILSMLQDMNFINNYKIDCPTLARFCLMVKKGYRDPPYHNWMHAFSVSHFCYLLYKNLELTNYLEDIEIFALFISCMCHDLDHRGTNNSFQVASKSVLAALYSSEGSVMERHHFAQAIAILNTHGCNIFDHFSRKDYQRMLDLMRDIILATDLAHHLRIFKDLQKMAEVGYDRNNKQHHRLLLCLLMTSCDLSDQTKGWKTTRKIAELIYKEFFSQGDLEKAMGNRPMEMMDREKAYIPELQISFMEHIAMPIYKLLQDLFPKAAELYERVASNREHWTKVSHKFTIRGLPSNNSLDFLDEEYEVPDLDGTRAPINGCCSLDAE

SMILES: Cc1ccc(-c2c(C#N)c(=O)n(Cc3ccc4c(c3)OCO4)c3c(NC(C)c4ccccn4)cccc23)cc1 (stereo unspecified)
IC50 [1]: 0.198 µM

SMILES: Cc1ccc(-c2c(C#N)c(=O)n(Cc3ccncc3)c3c(N[C@H](C)c4ccccn4)cccc23)cc1
IC50 [1]: 0.073 µM

SMILES: COc1ccc(-c2c(C#N)c(=O)n(Cc3ccccc3)c3c(N[C@H](C)c4ccccn4)cccc23)cc1
IC50 [1]: 0.003 µM
IC50 [2]: 10.5 µM
IC50 [3]: 3.38 µM
IC50 [4]: > 100 µM
IC50 [5]: 53.3 µM
IC50 [6]: 0.02 µM
IC50 [7]: 25.7 µM
IC50 [8]: > 100 µM
IC50 [9]: > 100 µM
IC50 [10]: 21.2 µM
IC50 [11]: > 100 µM
AUC(0-t) [12]: 399 ng·h/mL
AUC(0-inf) [13]: 399 ng·h/mL
MRT last [14]: 0.75 h
MRT inf [15]: 0.76 h
half-life [16]: 2.25 h
Tmax [17]: 4.98 min
clearance [18]: 83.3 mL/min/kg
Vd [19]: 16.3 L/kg
Cmax [20]: 985 ng/mL
AUC(0-t) [21]: 339 ng·h/mL
AUC(0-inf) [22]: 340 ng·h/mL
MRT last [23]: 6.3 h
MRT inf [24]: 6.4 h
half-life [25]: 2.79 h
Tmax [26]: 4 h
CL/F [27]: 525 mL/min/kg
Vz [28]: 126.6 L/kg
Cmax [29]: 58.4 ng/mL
bioavailability [30]: 16.8%
half-life [31]: 4.41 min
IC50 [32]: > 30 µM
IC50 (Cytochrome P450 1A2): > 50 µM
IC50 (Cytochrome P450 2C19): 4.63 µM
IC50 (Cytochrome P450 2C9): 9.76 µM
IC50 (Cytochrome P450 2D6): > 50 µM
IC50 (Cytochrome P450 3A4): > 50 µM
Activity [33]: Non-toxic
Activity (Rattus norvegicus [34]): inactive
Activity (Rattus norvegicus [35]): Active; The Effect Was Marginally Superior To That Of Sildenafil
Activity [36]: Non-toxic
Activity (Rattus norvegicus [37]): Active
Activity (Rattus norvegicus [38]): Active

SMILES: Cc1ccc(-c2c(C#N)c(=O)n(CC3CC3)c3c(NC(C)c4ccccn4)cccc23)cc1 (stereo unspecified)
inhibition [39]: 35%

The next lines start with the values.

IC50 [1]: 0.02 µM
SMILES: Cc1ccc(-c2c(C#N)c(=O)n(Cc3ccccc3)c3c(NCc4ccccc4)cccc23)cc1

IC50 [1]: 0.02 µM
SMILES: Cc1ccc(-c2c(C#N)c(=O)n(Cc3ccccc3)c3c(NCc4ccccn4)cccc23)cc1

IC50 [1]: 0.011 µM
SMILES: Cc1ccc(-c2c(C#N)c(=O)n(Cc3ccccc3)c3c(NC(C)c4ccccc4)cccc23)cc1 (stereo unspecified)

IC50 [1]: 0.034 µM
SMILES: CC(Nc1cccc2c(C3CCCCC3)c(C#N)c(=O)n(Cc3ccccc3)c12)c1ccccn1 (stereo unspecified)

IC50 [1]: 0.01 µM
SMILES: Cc1ccc(-c2c(C#N)c(=O)n(Cc3ccccc3)c3c(NC(C)c4ccccn4)cccc23)cc1 (stereo unspecified)
